In patent US9321760B2 (Merck Patent GmbH, priority 2011, dated 2016):

Molecular target: P70S6K (T412E mutant) (Homo sapiens (Human), UniProt P23443, T412E)
Experiment: P70S6K enzyme assay
Assay type: biochemical
Conditions: 3 nM P70S6K T412E mutant, 24 μM ATP, 1 μM FITC-AHA-AKRRRLSSLRA-OH substrate peptide, 90 min at 25° C.
Method in brief: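 P70S6K T412E mutant (3 nM) with 24 μM ATP and 1 μM FITC-labelled S6-derived peptide in Hepes pH 7.5, MgCl2, DTT, Brij buffer; 90 min at 25° C, stopped with EDTA. Phosphorylated product and substrate peptides separated by microfluidic mobility shift; IC50 values derived.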

P70S6K (T412E mutant), sequence (P23443 whole entry T412E): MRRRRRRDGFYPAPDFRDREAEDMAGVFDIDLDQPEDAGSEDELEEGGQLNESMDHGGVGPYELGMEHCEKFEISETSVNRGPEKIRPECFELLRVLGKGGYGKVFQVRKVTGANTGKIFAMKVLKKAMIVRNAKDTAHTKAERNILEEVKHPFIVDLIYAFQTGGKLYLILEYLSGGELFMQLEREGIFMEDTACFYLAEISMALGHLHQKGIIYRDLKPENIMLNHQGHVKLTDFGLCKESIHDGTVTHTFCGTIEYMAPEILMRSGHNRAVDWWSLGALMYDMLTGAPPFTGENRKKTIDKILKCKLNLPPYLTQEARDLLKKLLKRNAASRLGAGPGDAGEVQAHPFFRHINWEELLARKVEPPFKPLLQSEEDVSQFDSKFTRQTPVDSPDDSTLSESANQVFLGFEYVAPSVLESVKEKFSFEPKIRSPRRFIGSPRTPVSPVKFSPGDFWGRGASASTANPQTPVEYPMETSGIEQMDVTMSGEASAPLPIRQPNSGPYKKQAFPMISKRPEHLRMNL

IC50 | Structure (SMILES)
2800 nM | N#Cc1ccc(C(CN2CCC2)N2CCN(c3ncnc(N)c3-c3cn[nH]c3)CC2)cc1 (single isomer, unassigned) [Example 85, 4-(1-{4-[6-Amino-5-(1H-pyrazol-4-yl)-pyrimidin-4-yl]-piperazin-1-yl}-2-azetidin-1-yl-ethyl)-benzonitrile]
8.5 nM | NCC(c1ccc(Cl)nc1)N1CCN(c2ncnc(N)c2-c2ccc(F)cc2)CC1 (stereo not shown) [Example 174, 6-{4-[2-Amino-1-(6-chloro-pyridin-3-yl)-ethyl]-piperazin-1-yl}-5-(4-fluoro-phenyl)-pyrimidin-4-ylamine]
2 nM | CN(C)CCOC(c1ccc(F)cc1)C1CCN(c2ncnc(N)c2-c2ccc(F)cc2)CC1 (stereo not shown) [Example 147, 5-(4-fluorophenyl)6-(4-((4-fluorophenyl)(2-(dimethlyamino)ethoxy)methyl)piperidin-1-yl)pyrimidin-4-amine]
41000 nM | NC(=O)c1c(N)ncnc1N1CCC(N)(C(=O)N[C@@H](CCO)c2ccc(C(F)(F)F)cc2)CC1 [Example 233, 4-Amino-6-{4-amino-4-[(S)-3-hydroxy-1-(4-trifluoromethyl-phenyl)-propylcarbamoyl]-piperidin-1-yl}-pyrimidine-5-carboxylic acid amide]
640 nM | Nc1ncnc(N2CCN(C(CN3CCCC3)c3ccc(F)cc3)CC2)c1Br (stereo not shown) [Example 77, 5-Bromo-6{4-[1-(4-fluorophenyl)-2-pyrrolidin-1-yl-ethyl]-piperazin-1-yl}-pyrimidin-4-ylamine]
2700 nM | COC(=O)c1ccc([C@@H](CN2CCC2)N2CCN(c3ncnc(N)c3-c3cn[nH]c3)CC2)cc1 [Example 89, 4-((S)-1-{4-[6-Amino-5-(1H-pyrazol-4-yl)-pyrimidin-4-yl]-piperazin-1-yl}-2-azetidin-1-yl-ethyl)-benzoic acid methyl ester]
74 nM | Nc1ncnc(N2CCN(Cc3cc(Cl)c(Cl)cc3O)CC2)c1-c1ccc(F)cc1 [Example 60, 2-((4-(6-amino-5-(4-fluorophenyl)pyrimidin-4-yl)piperazin-1-yl)methyl)-4,5-dichlorophenol]
5.3 nM | NCC(c1ccc(C(F)(F)F)cc1)N1CCN(c2ncnc(N)c2C2=CCCCC2)CC1 (stereo not shown) [Example 24, 6-(4-(2-amino-1-(4-(trifluoromethyl)phenyl)ethyl)piperazin-1-yl)-5-(cyclohex-1-en-1-yl)pyrimidin-4-amine]
1000 nM | Nc1ncnc(N2CCC(N)(CNC(=O)c3ccc(F)cc3F)C2)c1-c1ccc(N2CCNCC2)nc1 (stereo not shown) [Example 206, N-{3-Amino-1-[6-amino-5-(6-piperazin-1-yl-pyridin-3-yl)-pyrimidin-4-yl]-pyrrolidin-3-ylmethyl}-2,4-difluoro-benzamide]
44 nM | N#CC(c1ccc(Cl)c(F)c1)N1CCN(c2ncnc(N)c2-c2ccc(F)cc2)CC1 (stereo not shown) [Example 164, {4-[6-Amino-5-(4-fluoro-phenyl)-pyrimidin-4-yl]-piperazin-1-yl}-(4-chloro-3-fluoro-phenyl)-acetonitrile]
0.9 nM | NCC(c1ccc(Cl)c(F)c1)N1CCN(c2ncnc(N)c2-c2ccc(F)cc2)CC1 (stereo not shown) [Example 165, 6-{4-[2-Amino-1-(4-chloro-3-fluoro-phenyl)-ethyl]-piperazin-1-yl}-5-(4-fluoro-phenyl)-pyrimidin-4-ylamine]
50 nM | N#Cc1c(N)ncnc1N1CCC(N)(CNC(=O)c2ccc(F)cc2F)C1 (stereo not shown) [Example 196, N-[3-Amino-1-(6-amino-5-cyano-pyrimidin-4-yl)-pyrrolidin-3-ylmethyl]-2,4-difluoro-benzamide]
> 1000 nM | Nc1ncnc(N2CCN(C(CCCN3CCC3)c3ccc(Cl)cc3)CC2)c1-c1ccc(F)cc1 (stereo not shown) [Example 113, 6-{4-[4-Azetidin-1-yl-1-(4-chloro-phenyl)-butyl]-piperazin-1-yl}-5-(4-fluoro-phenyl)-pyrimidin-4-ylamine]
450 nM | COc1ccc([C@H](CCO)NC(=O)C2(N)CCN(c3ncnc(N)c3C#N)CC2)cc1 [Example 229, 4-Amino-1-(6-amino-5-cyano-pyrimidin-4-yl)-piperidine-4-carboxylic acid [(S)-3-hydroxy-1-(4-methoxy-phenyl)-propyl]-amide]
38 nM | CN(C)CC(c1ccc(C(F)(F)F)cc1)N1CCN(c2ncnc(N)c2Br)CC1 (stereo not shown) [Example 14, 5-bromo-6-(4-(2-(dimethylamino)-1-(4-(trifluoromethyl)phenyl)ethyl)piperazin-1-yl)pyrimidin-4-amine]
24000 nM | CCOC(=O)Cn1cc(-c2c(N)ncnc2N2CCN(C(CN3CCC3)c3ccc(Cl)c(Cl)c3)CC2)cn1 (stereo not shown) [Example 117, [4-(4-Amino-6-{4-[2-azetidin-1-yl-1-(3,4-dichloro-phenyl)-ethyl]-piperazin-1-yl}-pyrimidin-5-yl)-pyrazol-1-yl]-acetic acid ethyl ester]
670 nM | Nc1ncnc(N2CCN(C(CN3CCC3)c3cccc(C(F)(F)F)c3F)CC2)c1-c1cn[nH]c1 (stereo not shown) [Example 99, 6-{4-[2-Azetidin-1-yl-1-(2-fluoro-3-trifluoromethyl-phenyl)-ethyl]-piperazin-1-yl}-5-(1H-pyrazol-4-yl)-pyrimidin-4-ylamine]

IC50 | Structure (SMILES)
5.3 nM | Nc1ncnc(N2CCC(N)(CNC(=O)c3ccc(F)cc3F)C2)c1-c1ccccc1 (stereo not shown) [Example 203, N-[3-Amino-1-(6-amino-5-phenyl-pyrimidin-4-yl)-pyrrolidin-3-ylmethyl]-2,4-difluoro-benzamide]
5.7 nM | NC[C@@H](c1ccc(C(F)(F)F)cc1)N1CCN(c2ncnc(N)c2-c2cn[nH]c2)CC1 [Example 9, (R)-6-(4-(2-amino-1-(4-(trifluoromethyl)phenyl)ethyl)piperazin-1-yl)-5-(1H-pyrazol-4-yl)pyrimidin-4-amine]
11 nM | Nc1ncnc(N2CCC(C(OCCN3CCCC3)c3ccc(F)cc3)CC2)c1-c1ccc(F)cc1 (stereo not shown) [Example 146, 5-(4-fluoropheny)6-(4-((4-fluorophenyl)(2-(pyrrolidin-1-yl)ethoxy)methyl)-piperidin-1-yl)pyrimidin-4-amine]
> 1000 nM | CCc1c(N)ncnc1N1CCN(C(CN)C2CCCCC2)CC1 (stereo not shown) [Example 188, 6-[4-(2-Amino-1-cyclohexyl-ethyl)-piperazin-1-yl]-5-ethyl-pyrimidin-4-ylamine]
980 nM | CC(c1ccc(Cl)cc1OC1CNC1)N1CCN(c2ncnc(N)c2-c2ccc(F)cc2)CC1 (stereo not shown) [Example 63, 6-(4-{1-[2-(Azetidin-3-yloxy)-4-chloro-phenyl]-ethyl}-piperazin-1-yl)-5-(4-fluoro-phenyl)-pyrimidin-4-ylamine]
48.5 nM | NCC(c1ccc(C(F)(F)F)cc1)N1CCN(c2ncnc(N)c2OCC(F)(F)F)CC1 (stereo not shown) [Example 33, 6-(4-(2-amino-1-(4-(trifluoromethyl)phenyl)ethyl)piperazin-1-yl)-5-(2,2,2-trifluoroethoxy)pyrimidin-4-amine]
18 nM | Nc1ncnc(N2CCN(C(CN3CCCCC3)c3ccc(C(F)(F)F)cc3)CC2)c1-c1ccc(F)cc1 (stereo not shown) [Example 12, 5-(4-Fluoro-phenyl)-6-{4-[2-piperidin-1-yl-1-(4-trifluoromethyl-phenyl)-ethyl]-piperazin-1-yl}-pyrimidin-4-ylamine]
22000 nM | Nc1ncnc(N2CCC(N)(C(=O)N[C@@H](CCO)c3ccc(C(F)(F)F)cc3)CC2)c1Cl [Example 223, 4-Amino-1-(6-amino-5-chloro-pyrimidin-4-yl)-piperidine-4-carboxylic acid [(S)-3-hydroxy-1-(4-trifluoromethyl-phenyl)-propyl]-amide]
45 nM | CN(C)CC(c1ccc(C(F)(F)F)cc1)N1CCN(c2ncnc(N)c2-c2ccc(C(=O)O)cc2)CC1 (stereo not shown) [Example 26, 4-(4-amino-6-(4-(2-(dimethylamino)-1-(4-(trifluoromethyl)phenyl)ethyl)piperazin-1-yl)pyrimidin-5-yl)benzoic acid]
3.4 nM | COc1ccc(C(CN)N2CCN(c3ncnc(N)c3-c3ccc(F)cc3)CC2)cn1 (stereo not shown) [Example 183, 6-(4-(2-amino-1-(6-methoxypyridin-3-yl)ethyl)piperazin-1-yl)-5-(4-fluorophenyl)pyrimidin-4-amine]
240 nM | N#CC(c1ccc(C(F)(F)F)cc1)N1CCN(c2ncnc(N)c2-c2ccc(F)cc2)CC1 (stereo not shown) [Example 168, {4-[6-Amino-5-(4-fluoro-phenyl)-pyrimidin-4-yl]-piperazin-1-yl}-(4-trifluoromethyl-phenyl)-acetonitrile]
1900 nM | Cc1cc(C(CN2CCC2)N2CCN(c3ncnc(N)c3-c3cn[nH]c3)CC2)ccc1Cl (stereo not shown) [Example 109, 6-{4-[2-Azetidin-1-yl-1-(4-chloro-3-methyl-phenyl)-ethyl]-piperazin-1-yl}-5-(1H-pyrazol-4-yl)-pyrimidin-4-ylamine]
3.3 nM | NCC(c1ccc(C(F)(F)F)cc1)C1CCN(c2ncnc(N)c2-c2ccc(F)cc2)CC1 (stereo not shown) [Example 52, 6-{4-[2-Amino-1-(4-trifluoromethyl-phenyl)-ethyl]-piperidin-1-yl}-5-(4-fluoro-phenyl)-pyrimidin-4-ylamine]
590 nM | N#CC(c1ccc(F)c(Cl)c1)N1CCN(c2ncnc(N)c2-c2ccc(F)cc2)CC1 (stereo not shown) [Example 160, {4-[6-Amino-5-(4-fluoro-phenyl)-pyrimidin-4-yl]-piperazin-1-yl}-(3-chloro-4-fluoro-phenyl)-acetonitrile]
> 1000 nM | N#CC(c1cccc(C(F)(F)F)c1)N1CCN(c2ncnc(N)c2-c2ccc(F)cc2)CC1 (stereo not shown) [Example 152, {4-[6-Amino-5-(4-fluoro-phenyl)-pyrimidin-4-yl]-piperazin-1-yl}-(3-trifluoromethyl-phenyl)-acetonitrile]
4.6 nM | Nc1ncnc(N2CCC(C(O)c3ccc(F)cc3)CC2)c1-c1ccc(F)cc1 (stereo not shown) [Example 140]

Structure (SMILES) | IC50
NC(=O)c1c(N)ncnc1N1CCC(N)(C(=O)N[C@@H](CCO)c2ccc(Cl)cc2)CC1 [Example 247] | 3600 nM
